Tests used:
human tau mice = test: Thermal response to heat (hypoalgesia), human tau mice; assay type: in vivo
Procedure: (§1) Female and male human tau mice (Jax #005491) were treated daily for 25 weeks with PTG-630 trihydrochloride at 1 and 5 mg/kg in drinking water starting at 10 weeks of age (before cognitive deficits appear).
Tactile and thermal responses, measures of associated damage to the peripheral nervous system (PNS), were assessed at 8, 14, 18 and 24 weeks. hTau mice developed significant tactile allodynia measured with manual von Frey filaments at the 14 weeks time point (FIG. 4).
Human tau mice develop significant hypoalgesia (FIG. 5).

[1] = Oral pharmacokinetics and tissue distribution of PTG-630 (blood brain barrier penetration); assay type: in vivo, Sprague-Dawley rats; parameters: AUC(0-t) / AUC(0-inf): concentration or dose not given beside the values; conditions: for concentration at 0.5 h: 0.50 h
Excerpt: This was a study in male Sprague-Dawley rats. The primary objective was to assess the IV and PO pharmacokinetics of PTG-630. The secondary objectives were to assess tissue distribution after oral administration of PTG-630 (free base form) and the renal excretion, hepatic extraction efficiency and bioavailability of PTG-630.
Twelve non-cannulated animals were arbitrarily assigned to groups upon arrival and housed together throughout the experiment. The animals were acclimated to their designated housing for at least 24 hours before the first day of dosing. PTG-630 was formulated in 0.5% methyl cellulose and 0.1% Tween 20 in water for injection and administered to animals by mouth (PO) with blood and tissue samples collected at predetermined time points. Right thigh muscle, liver, brain, right sciatic nerve, and right kidney were collected at the terminal time points. These samples were collected and placed into individually labeled tubes and frozen at −20° C. Tissues samples were analyzed for concentration of PTG-630.

htau mice = test: Motor nerve conduction velocity (NCV), htau mice; assay type: in vivo; conditions: htau mice with or without treatment, 8, 16 and 25 weeks
Procedure: as §1
Motor nerve conduction velocity (NCV) was measured at 8, 16 and 25 weeks after treatment.

[2] = male, Sprague-Dawley, rat, brain, po
[3] = male, Sprague-Dawley, rat, kidney, po
[4] = male, Sprague-Dawley, rat, liver, po
[5] = male, Sprague-Dawley, rat, muscle, po
[6] = male, Sprague-Dawley, rat, plasma, po
[7] = male, Sprague-Dawley, rat, sciatic nerve, po
[8] = male, Sprague-Dawley, rat, Brain, PO, mean
[9] = male, Sprague-Dawley, rat, Kidney, PO, mean
[10] = male, Sprague-Dawley, rat, Liver, PO, mean
[11] = male, Sprague-Dawley, rat, Muscle, PO, mean
[12] = male, Sprague-Dawley, rat, Plasma, PO, mean
[13] = male, Sprague-Dawley, rat, Sciatic Nerve, PO, mean

For `Cc1ncc(CN2CCOCC2)c(-c2ncc[nH]2)c1O` [PTG-630, 4-(1H-imidazol-2-yl)-2-methyl-5-(morpholinomethyl)pyridin-3-ol], the thermal hypoalgesia (human tau mice; 1 mg/kg, remained for the rest of the study) was “significant by 14 weeks of treatment”, the thermal hypoalgesia (human tau mice; 5 mg/kg, by 8 weeks of treatment and for the duration of the study) was “significantly ameliorated” and the “thermal responses to heat” value (human tau mice; FIG. 5 legend, after 24 weeks of treatment) was “amelioration of hypoalgesia”. For the same molecule, the Concentration ([1]; Brain, 24 h, PO, mean) was “BLQ”, the “% Extrap” value ([1]; Brain, PO) was 23.7% and the Concentration ([1]; Kidney, 24 h, PO, mean) was “BLQ”. The “% Extrap” value ([1]; Kidney, PO) was 14.0%, the Concentration ([1]; Liver, 24 h, PO, mean) was “BLQ” and the “% Extrap” value ([1]; Liver, PO) was 5.72%. The Concentration ([1]; Muscle, 24 h, PO, mean) was “BLQ”, the “% Extrap” value ([1]; Muscle, PO) was 30.7% and the “% Extrap” value ([1]; Plasma, PO) was 1.13%. For the same molecule, the Concentration ([1]; Sciatic Nerve, 24 h, PO, mean) was “BLQ”, the “detectability in tissues 24 hours post dose” value ([1]; any tissue except plasma, 24 hours post dose) was “not detectable” and the “Half-life in brain relative to plasma” value ([1]; brain vs plasma) was 1.3 times. For the same molecule, the “quantifiability in tested tissues” value ([1]; liver, kidney, brain, sciatic nerve, muscle) was “quantifiable in all tested tissues”, the AUC(0-inf) [1, 2] was 6720 ng·h/mL and the AUC(0-t) [1, 2] was 5130 ng·h/mL. The Cmax [1, 2] was 1990 ng/mL, the Tmax [1, 2] was 1 h and the half-life [1, 2] was 4.53 h. The AUC(0-inf) [1, 3] was 11400 ng·h/mL, the AUC(0-t) [1, 3] was 9770 ng·h/mL and the Cmax [1, 3] was 3880 ng/mL. For the same molecule, the Tmax [1, 3] was 1 h, the AUC(0-inf) [1, 4] was 22000 ng·h/mL and the AUC(0-t) [1, 4] was 20700 ng·h/mL. It also gave a Cmax [1, 4] of 6350 ng/mL, a Tmax [1, 4] of 1 h and an AUC(0-inf) [1, 5] of 3820 ng·h/mL. For the same molecule, the AUC(0-t) [1, 5] was 2650 ng·h/mL, the Cmax [1, 5] was 1030 ng/mL and the Tmax [1, 5] was 1 h. For the same molecule, the AUC(0-inf) [1, 6] was 8700 ng·h/mL, the AUC(0-t) [1, 6] was 8600 ng·h/mL and the Cmax [1, 6] was 1160 ng/mL. The Tmax [1, 6] was 1 h, the AUC(0-t) [1, 7] was 6550 ng·h/mL and the Cmax [1, 7] was 1830 ng/mL. The Tmax [1, 7] was 1 h, the Kp ([1]; male, Sprague-Dawley, rat, selected tissues vs plasma, po, read-out: exposure in selected tissues relative to exposure in plasma) was 3 to 5 and the concentration at 0.5 h [1, 8] was 1430 ng/mL. For the same molecule, the concentration at 1 h [1, 8] was 1990 ng/mL, the concentration at 2 h [1, 8] was 450 ng/mL and the concentration at 4 h [1, 8] was 1000 ng/mL. The concentration at 6 h [1, 8] was 244 ng/mL, the concentration at 0.5 h [1, 9] was 2230 ng/mL and the concentration at 1 h [1, 9] was 3880 ng/mL. For the same molecule, the concentration at 2 h [1, 9] was 1510 ng/mL, the concentration at 4 h [1, 9] was 1520 ng/mL and the concentration at 6 h [1, 9] was 466 ng/mL. The concentration at 0.5 h [1, 10] was 5720 ng/mL, the concentration at 1 h [1, 10] was 6350 ng/mL and the concentration at 2 h [1, 10] was 5080 ng/mL. It also gave a concentration at 4 h [1, 10] of 2420 ng/mL, a concentration at 6 h [1, 10] of 647 ng/mL and a concentration at 0.5 h [1, 11] of 775 ng/mL. For the same molecule, the concentration at 1 h [1, 11] was 1030 ng/mL, the concentration at 2 h [1, 11] was 290 ng/mL and the concentration at 4 h [1, 11] was 401 ng/mL. It also gave a concentration at 6 h [1, 11] of 245 ng/mL, a concentration at 0.5 h [1, 12] of 930 ng/mL and a concentration at 1 h [1, 12] of 1160 ng/mL. It also gave a concentration at 2 h [1, 12] of 274 ng/mL, a concentration at 4 h [1, 12] of 794 ng/mL and a concentration at 6 h [1, 12] of 510 ng/mL. For the same molecule, the concentration at 24 h ([1]; male, Sprague-Dawley, rat, Plasma, 24 h, PO, mean) was 18.4 ng/mL, the concentration at 0.5 h [1, 13] was 1660 ng/mL and the concentration at 1 h [1, 13] was 1830 ng/mL. For the same molecule, the concentration at 2 h [1, 13] was 510 ng/mL, the concentration at 4 h [1, 13] was 989 ng/mL and the concentration at 6 h [1, 13] was 690 ng/mL. The Tmax ([1]; male, Sprague-Dawley, rat, tissues, comparable to plasma, PO) was 1 h and the Nerve conduction velocity (htau mice) was “not significantly different from control levels”.

From patent publication US20250090541A1, “Methods for Treating Neurodegenerative Disorders” (Praetego Inc, priority 2022, published 2025)
